Consider three molecules from patent US11642336B2, “5-HT2A agonists for use in treatment of depression” (priority 2019, dated 2023).

Read-outs that look alike come from different tables or passages of the source. A value given as a limit tells only on which side of the number the result lay.

Assay [1] deals with T1, human 5-HT2A (Homo sapiens (Human), UniProt P28223). Put plainly: cell-based. It counts as cell-based. The conditions noted are these: % of the Rmax of 5-HT.
Assay [2] concerns the target T2, 5-HT2C (Homo sapiens (Human), UniProt P28335). Put plainly: Ca2+/Fluo-4 assay, stable h5-HT2C-HEK293 cell line.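 Note: Agonist-induced intracellular Ca2+ rise read by Fluo-4 fluorescence in HEK293 cells stably expressing the human 5-HT2C receptor, each compound run in duplicate on three or more occasions.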 The conditions noted are these: agonist potency, n = 3-4; read-out: 5-HT2C EC50. It counts as cell-based.
Assay [3] concerns the target T3, 5-HT2B (Homo sapiens (Human), UniProt P41595). Put plainly: fluorescence-based Ca2+ imaging assay (Eurofins), stable h5-HT2B cell line.
For assay [4], the target named is T1, human 5-HT2A. Put plainly: cell-based. To be noted: IP assay, % of Rmax of 5-HT. The class given is cell-based.
For assay [5], the target named is 5-HT1A (Homo sapiens (Human), UniProt P08908). Put plainly: radioligand competition binding assay (Psychiatric Drug Screening Program). (In general: In a radioligand displacement assay an active substance lowers the binding of a labelled ligand.)
Assay [6] concerns the target 5-HT1D (Homo sapiens (Human), UniProt P28221). Described as above.
Assay [7] has as its target 5-HT1e (Homo sapiens (Human), UniProt P28566). The assay is described as above.
The target of assay [8] is T3, 5-HT2B. The assay is described as above.
The target in assay [9] is T2, 5-HT2C. Put plainly: biochemical. It counts as binding.
Assay [10] concerns the target 5-HT6 (Homo sapiens (Human), UniProt P50406). Put plainly: radioligand competition binding assay (Psychiatric Drug Screening Program).
The target in assay [11] is 5-HT7 (Homo sapiens (Human), UniProt P34969). Described as above.
Chain of 5-HT7 (P34969 whole entry, looked up, species assumed): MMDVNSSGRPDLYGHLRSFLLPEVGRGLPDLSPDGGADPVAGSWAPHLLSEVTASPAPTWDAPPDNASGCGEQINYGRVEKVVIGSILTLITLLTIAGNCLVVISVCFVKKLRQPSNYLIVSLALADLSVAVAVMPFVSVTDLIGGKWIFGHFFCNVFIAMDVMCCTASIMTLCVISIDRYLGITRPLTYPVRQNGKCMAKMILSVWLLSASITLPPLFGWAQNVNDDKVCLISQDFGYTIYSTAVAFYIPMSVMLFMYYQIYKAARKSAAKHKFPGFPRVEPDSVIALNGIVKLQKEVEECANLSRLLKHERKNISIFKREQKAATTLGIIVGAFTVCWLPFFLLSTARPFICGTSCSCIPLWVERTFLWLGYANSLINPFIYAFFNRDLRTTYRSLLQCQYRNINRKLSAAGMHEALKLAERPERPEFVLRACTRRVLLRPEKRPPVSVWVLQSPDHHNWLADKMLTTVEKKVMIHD
In assay [12] the target is a1A (Homo sapiens (Human), UniProt P35348). Described as above.
Chain of a1A (P35348 whole entry, looked up): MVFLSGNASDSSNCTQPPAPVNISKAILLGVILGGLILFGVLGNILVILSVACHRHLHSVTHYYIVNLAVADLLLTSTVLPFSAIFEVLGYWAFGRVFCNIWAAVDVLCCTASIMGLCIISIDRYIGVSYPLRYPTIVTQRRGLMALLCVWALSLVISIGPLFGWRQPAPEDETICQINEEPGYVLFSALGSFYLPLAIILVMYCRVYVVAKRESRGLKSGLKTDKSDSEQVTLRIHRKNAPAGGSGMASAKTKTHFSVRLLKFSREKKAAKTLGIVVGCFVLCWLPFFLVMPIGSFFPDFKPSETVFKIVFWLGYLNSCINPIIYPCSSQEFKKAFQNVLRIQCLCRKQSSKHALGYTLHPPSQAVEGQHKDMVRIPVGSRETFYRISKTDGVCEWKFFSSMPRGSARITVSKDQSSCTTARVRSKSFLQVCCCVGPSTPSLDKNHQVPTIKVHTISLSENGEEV
For assay [13], the target named is a1B (Homo sapiens (Human), UniProt P35368). The description is as above.
Chain of a1B (P35368 whole entry, looked up): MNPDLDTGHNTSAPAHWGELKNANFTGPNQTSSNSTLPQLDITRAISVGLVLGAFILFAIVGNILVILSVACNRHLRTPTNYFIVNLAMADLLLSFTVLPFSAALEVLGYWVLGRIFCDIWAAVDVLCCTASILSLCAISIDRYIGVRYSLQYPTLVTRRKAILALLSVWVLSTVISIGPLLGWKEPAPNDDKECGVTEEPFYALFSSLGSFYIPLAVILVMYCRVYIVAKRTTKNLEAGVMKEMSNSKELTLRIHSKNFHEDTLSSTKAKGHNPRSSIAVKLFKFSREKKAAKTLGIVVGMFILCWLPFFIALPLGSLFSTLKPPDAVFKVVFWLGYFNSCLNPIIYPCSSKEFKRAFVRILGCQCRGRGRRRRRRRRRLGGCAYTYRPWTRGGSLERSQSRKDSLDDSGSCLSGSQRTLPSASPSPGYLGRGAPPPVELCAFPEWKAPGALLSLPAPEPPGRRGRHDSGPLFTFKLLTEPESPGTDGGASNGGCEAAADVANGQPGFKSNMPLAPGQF
Assay [14] has as its target a2A (Homo sapiens (Human), UniProt P08913). The description is as above.
For assay [15], the target named is a2B (Homo sapiens (Human), UniProt P18089). Described as above.
The target of assay [16] is a2C (Homo sapiens (Human), UniProt P18825). Described as above.
Chain of a2C (P18825 whole entry, looked up): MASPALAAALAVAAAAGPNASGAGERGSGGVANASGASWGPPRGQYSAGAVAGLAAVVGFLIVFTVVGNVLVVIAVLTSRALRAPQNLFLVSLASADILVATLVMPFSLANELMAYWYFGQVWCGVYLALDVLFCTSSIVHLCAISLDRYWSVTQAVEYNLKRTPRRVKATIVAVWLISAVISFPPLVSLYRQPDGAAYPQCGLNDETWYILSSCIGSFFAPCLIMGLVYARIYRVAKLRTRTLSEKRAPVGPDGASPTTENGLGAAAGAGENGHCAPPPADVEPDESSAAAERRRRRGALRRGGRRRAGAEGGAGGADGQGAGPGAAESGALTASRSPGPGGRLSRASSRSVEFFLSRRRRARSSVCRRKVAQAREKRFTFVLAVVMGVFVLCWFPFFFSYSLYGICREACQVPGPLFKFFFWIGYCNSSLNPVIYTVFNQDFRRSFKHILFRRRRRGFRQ
Assay [17] deals with Flinders Sensitive Line (FSL) rats. Put plainly: forced swim test, Flinders Sensitive Line (FSL) model. The class given is in vivo. To be noted: one hour after i.p. administration, vs vehicle-treated FSL rats, FIG. 3. On the procedure:
Male Flinders line rats (Flinders Sensitive Line (FSL) and their control Flinders Resistant Line (FRL); 9-11 weeks of age; 228-336 g) from the colony maintained at (TNU), Aarhus University (originally derived from the colony at the University of North Carolina, USA) were housed in pairs (Cage 1291H Eurostandard Type III H, 425×266×185 mm, Techniplast, Buguggiate, Italy) at 20±2° C. on a 12-h light/dark cycle (lights on at 07:00 am). The animals had ad libitum access to chow pellets and tap water. The animal colony was protected from outside noise, and all experimental procedures were performed in specially equipped rooms within the vivarium. […]
The following groups were included in the experiment: FRL-vehicle (n=10), FSL-vehicle (n=10), FSL-ketamine (15 mg/kg S-ketamine, Pfizer) (n=8), and FSL-compound 8 (1.5 mg/kg) (n=10). […] A camera, located directly above the center of the field, recorded the session and the total distance moved was quantified using EthoVision XT video tracking software (version 11.0.928; Noldus Information Technology, Wageningen, The Netherlands).
The rat was placed in an acrylic plastic cylinder (60 cm in height, 24 cm in diameter) containing 40 cm of water (25±1° C.) for 7 min. A camera, located directly in front of the cylinder, recorded the session. […]

Assay [18] has as its target 5-HT1B (Homo sapiens (Human), UniProt P28222). As to the kind of experiment: radioligand competition binding assay (Psychiatric Drug Screening Program).
The target of assay [19] is 5-HT5A (Homo sapiens (Human), UniProt P47898). The assay is described as above.
Chain of 5-HT5A (P47898 whole entry, looked up, species assumed): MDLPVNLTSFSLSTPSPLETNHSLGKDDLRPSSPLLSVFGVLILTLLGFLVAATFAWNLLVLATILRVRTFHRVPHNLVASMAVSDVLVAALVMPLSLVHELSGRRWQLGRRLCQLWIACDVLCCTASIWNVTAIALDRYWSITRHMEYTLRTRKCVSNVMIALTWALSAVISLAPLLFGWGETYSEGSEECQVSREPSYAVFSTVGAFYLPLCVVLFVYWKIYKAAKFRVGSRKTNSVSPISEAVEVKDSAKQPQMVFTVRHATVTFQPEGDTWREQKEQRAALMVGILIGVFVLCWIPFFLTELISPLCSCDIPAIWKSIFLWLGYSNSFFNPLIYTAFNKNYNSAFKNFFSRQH
Assay [20] deals with D1 (Homo sapiens (Human), UniProt P21728). The assay is described as above.
Chain of D1 (P21728 whole entry, looked up): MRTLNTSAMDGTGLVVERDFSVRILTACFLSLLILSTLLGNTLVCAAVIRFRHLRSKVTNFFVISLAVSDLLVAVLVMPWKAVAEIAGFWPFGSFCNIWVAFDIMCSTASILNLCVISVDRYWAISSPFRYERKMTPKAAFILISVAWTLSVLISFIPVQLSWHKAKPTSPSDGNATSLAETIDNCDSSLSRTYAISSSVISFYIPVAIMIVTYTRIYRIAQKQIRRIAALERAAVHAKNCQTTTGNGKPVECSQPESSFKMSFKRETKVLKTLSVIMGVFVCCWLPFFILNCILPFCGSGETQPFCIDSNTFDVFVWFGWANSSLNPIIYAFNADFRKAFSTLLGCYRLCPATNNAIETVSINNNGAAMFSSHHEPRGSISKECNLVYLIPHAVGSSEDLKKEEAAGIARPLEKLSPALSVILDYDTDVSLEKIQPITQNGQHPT
The target of assay [21] is D2 (Homo sapiens (Human), UniProt P14416). The description is as above.
In assay [22] the target is D3 (Homo sapiens (Human), UniProt P35462). The assay is described as above.
Assay [23] has as its target D4 (Homo sapiens (Human), UniProt P21917). The description is as above.
The target in assay [24] is D5 (Homo sapiens (Human), UniProt P21918). Described as above.
For assay [25], the system named is 5-HT2A. The conditions noted are these: cited from earlier work.
Assay [26] relates to 5-HT2C. To be noted: cited from earlier work.
The target of assay [27] is T3, 5-HT2B. The conditions noted are these: % of the Rmax of 5-HT; cited from earlier work.
Where [28] appears, read: Rmax ± S.D., % of the Rmax of 5-HT.

Chain of 5-HT6 (P50406 whole entry, looked up, species assumed): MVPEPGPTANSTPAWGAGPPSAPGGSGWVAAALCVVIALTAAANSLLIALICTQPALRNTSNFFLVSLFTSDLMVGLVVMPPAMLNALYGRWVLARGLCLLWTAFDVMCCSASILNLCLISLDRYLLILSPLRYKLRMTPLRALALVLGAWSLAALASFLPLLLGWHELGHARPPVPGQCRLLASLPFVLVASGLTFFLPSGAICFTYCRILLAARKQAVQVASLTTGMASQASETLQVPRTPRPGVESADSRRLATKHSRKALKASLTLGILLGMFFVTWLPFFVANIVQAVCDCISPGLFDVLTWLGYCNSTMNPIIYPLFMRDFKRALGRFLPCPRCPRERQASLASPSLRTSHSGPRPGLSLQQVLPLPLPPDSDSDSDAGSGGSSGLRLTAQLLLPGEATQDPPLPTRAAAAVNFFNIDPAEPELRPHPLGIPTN
Chain of 5-HT1D (P28221 whole entry, looked up, species assumed): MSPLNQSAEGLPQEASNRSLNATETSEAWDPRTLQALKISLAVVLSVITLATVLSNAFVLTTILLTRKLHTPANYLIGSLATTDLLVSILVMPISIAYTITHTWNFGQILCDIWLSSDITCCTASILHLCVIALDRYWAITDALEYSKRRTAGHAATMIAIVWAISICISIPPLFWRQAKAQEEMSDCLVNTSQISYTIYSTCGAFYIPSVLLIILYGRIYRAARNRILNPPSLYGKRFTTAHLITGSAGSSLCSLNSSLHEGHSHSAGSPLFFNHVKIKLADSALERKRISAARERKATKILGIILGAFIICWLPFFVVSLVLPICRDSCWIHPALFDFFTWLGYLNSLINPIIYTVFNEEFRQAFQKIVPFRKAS
Chain of 5-HT1e (P28566 whole entry, looked up, species assumed): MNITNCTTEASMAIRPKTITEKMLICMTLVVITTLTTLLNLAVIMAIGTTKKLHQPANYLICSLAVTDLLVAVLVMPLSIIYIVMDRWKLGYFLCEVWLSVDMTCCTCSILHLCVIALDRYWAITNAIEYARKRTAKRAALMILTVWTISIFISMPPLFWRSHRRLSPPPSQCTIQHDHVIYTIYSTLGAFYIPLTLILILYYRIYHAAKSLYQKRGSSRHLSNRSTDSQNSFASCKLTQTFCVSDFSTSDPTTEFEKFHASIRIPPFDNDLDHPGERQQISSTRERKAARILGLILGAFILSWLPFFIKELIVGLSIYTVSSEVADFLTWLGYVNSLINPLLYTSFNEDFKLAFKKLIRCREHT
Chain of a2A (P08913 whole entry, looked up): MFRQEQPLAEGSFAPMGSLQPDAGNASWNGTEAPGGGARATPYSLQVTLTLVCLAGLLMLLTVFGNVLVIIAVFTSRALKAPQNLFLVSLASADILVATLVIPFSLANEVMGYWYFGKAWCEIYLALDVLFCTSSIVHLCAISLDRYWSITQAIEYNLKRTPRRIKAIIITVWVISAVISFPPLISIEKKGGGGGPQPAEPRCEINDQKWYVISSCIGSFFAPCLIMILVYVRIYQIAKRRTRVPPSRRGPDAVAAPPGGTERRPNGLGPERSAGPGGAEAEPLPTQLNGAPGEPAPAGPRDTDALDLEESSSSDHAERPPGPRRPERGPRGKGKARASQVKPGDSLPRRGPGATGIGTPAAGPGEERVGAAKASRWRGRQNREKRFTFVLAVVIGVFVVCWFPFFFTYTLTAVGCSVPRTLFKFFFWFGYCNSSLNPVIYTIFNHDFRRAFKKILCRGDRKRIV
Chain of 5-HT1B (P28222 whole entry, looked up, species assumed): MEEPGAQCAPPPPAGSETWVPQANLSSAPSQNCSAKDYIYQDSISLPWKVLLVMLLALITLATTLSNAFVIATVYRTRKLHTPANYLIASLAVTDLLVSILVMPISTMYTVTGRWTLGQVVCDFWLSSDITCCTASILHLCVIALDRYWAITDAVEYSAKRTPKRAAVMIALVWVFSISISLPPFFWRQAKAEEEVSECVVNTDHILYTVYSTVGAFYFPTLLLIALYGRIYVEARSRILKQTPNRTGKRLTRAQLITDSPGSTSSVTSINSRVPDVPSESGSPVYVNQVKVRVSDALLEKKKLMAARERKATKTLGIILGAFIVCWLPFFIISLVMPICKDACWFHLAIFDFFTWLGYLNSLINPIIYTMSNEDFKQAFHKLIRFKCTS

As for `COc1cc(C(F)(F)F)c(OC)cc1[C@@H]1CCCNC1.Cl` [Compound 8, (S)-3-(2,5-Dimethoxy-4-(trifluoromethyl)phenyl)piperidine hydrochloride], the “5-HT2A Rmax ± S.E.M” value in [1] was 47 ± 3%. Moreover, the 50% effective concentration (EC50) (usually the concentration at which the effect is half-maximal) in [2] is more than 50000 nM; in [3] (agonist potency) it was 280 nM. The “5-HT2B Rmax” value in [3] (% of the Rmax of 5-HT) amounted to 84%. Moreover, the “5-HT2A Rmax” value in assay [4] came to 74%. The Ki (usually the equilibrium dissociation constant of an inhibitor or competing ligand from its target) stood at 330 nM in assay [5]; 663 nM in assay [6] (read-out: Ki (nM) 5-HT1D); 762 nM in assay [7]; 85 nM in assay [8]; 42 nM in assay [9]; 623 nM in [10]. The Ki in assay [11] was 2360 nM; in assay [12] (read-out: Ki (nM) a1A) it was more than 10000 nM; in assay [13] (read-out: Ki (nM) a1B), more than 10000 nM; in [14] (read-out: Ki (nM) a2A), 1400 nM; in [15], 820 nM; in [16], more than 10000 nM.
Regarding `CN[C@]1(c2ccccc2Cl)CCCCC1=O` [(S)-ketamine], the “immobility time in the forced swim test” value in assay [17] was “reduce the immobility time”.
`CN(C)CCc1c[nH]c2cccc(O)c12` [Psilocin, psilocin]: the Ki in [5] was determined as 63 nM; in assay [18], 305 nM; in [6], 19 nM; in [7] it was 44 nM; in [19] it was 70 nM; in assay [10] it was 72 nM. Also, the Ki is 72 nM in assay [11]; 20 nM in assay [20]; more than 10000 nM in assay [21]; 100 nM in assay [22]; more than 10000 nM in [23]; more than 10000 nM in assay [24]. In addition, the Ki in assay [12] was more than 10000 nM; in assay [13] it was more than 10000 nM; in [14], 2000 nM; in assay [16] it was 4400 nM. In addition, the results for the concentration giving a half-maximal response (EC50) in assay [25] (EC50 ± S.D.) and in assay [26] (EC50 ± S.D.) were […] and 30 ± 18 nM, respectively. For the same molecule, the “Rmax (%) 5-HT2A” value in [25] (setting [28]) was […]. In addition, in assay [26] (setting [28]), the “Rmax (%) 5-HT2C” value is 51 ± 37%. The “Rmax (%) 5-HT2B” value in assay [27] is reported as 45%.
